The record followed here is patent US4622337A, “2,2-dimethyl-3-(2-halovinyl)cyclopropane carboxlic acid ester pesticides” (priority 1972, dated 1986).

Test [1] deals with houseflies (Musca domestica). Nature of the test: Relative toxicity to houseflies, topical drop on thorax. The format is in vivo. The settings on record: 5-benzyl-3-furylmethyl (1R)-trans-chrysanthemate = 1000; inverse ratio of LD50; topical, female flies. The procedure:
(§1) The toxicity of these new esters was tested by the procedure described in detail in our above mentioned application and the following results were obtained:
(§2) The insecticidal acitivity of the esters of the invention was assessed against houseflies and mustard beetles using the following techniques:
Female flies were treated on the thorax with a one microliter drop of insecticide dissolved in acetone. Two replicates of 15 flies were used at each dose rate and 6 dose rates were used per compound under test. After treatment, the flies were maintained at a temperature of 20° C.±1° and kill was assessed 24 and 48 hours after treatment. LD50 values were calculated in micrograms of insecticide per fly and relative toxicities were calculated from the inverse ratios of the LD50 values. (see Sawicki et al, Bulletin of the World Health Organization, 35,893, (1966) and Sawicki et al, Entomologia and Exp. Appl. 10, 253, (1967)).
(§3) Relative toxicities were calculated by comparison with 5-benzyl-3-furylmethyl(1R)-trans-chrysanthemate which is one of the most toxic chrysanthemate esters known to houseflies and mustard beetles, its toxicity being about 24 times that of allethrin to houseflies and 65 times that of allethrin to mustard beetles.

For test [2], the system named is mustard beetles (Phaedon cochleariae Fab). Nature of the test: Relative toxicity to mustard beetles, topical micro drop. The format is in vivo. The following applies: 5-benzyl-3-furylmethyl (1R)-trans-chrysanthemate = 1000; inverse ratio of LD50; topical, 48 hours. The method, then: as §1, §2
Acetone solutions of the test compound were applied ventrally to adult mustard beetles using a micro drop applicator. The treated insects were maintained for 48 hours after which time kill is assessed. Two replicates of 40 to 50 mustard beetles were used at each dose level and 3 to 4 dose levels were used for each compound. Again, LD50 values were calculated and relative toxicities were calculated for the inverse ratios of LD50 (see Elliott et al, J. Sci. Food Agric. 20, 561, (1969)).
as §3

`CC1(C)C(C=C(Cl)Cl)C1C(=O)OCC#CCOc1ccccc1` (racemic) [Compound ME5, 4-Phenoxybut-2-ynyl(1RS)-cis,trans-3-(2,2-dichlorovinyl)-2,2-dimethylcyclopropane carboxylate]: in test [1], the “Relative Toxicity, Houseflies” value was determined as 300. Moreover, the “Relative Toxicity, Mustard Beetles” value in test [2] is listed as 40.

Consider `CC1(C)C(C=C(Cl)Cl)C1C(=O)OC(C#N)c1coc(Cc2ccccc2)c1` (racemic) [Compound P21N, (αRS)-Cyano-5-benzyl-3-furylmethyl-(1RS)-cis-trans-3-(2,2-dichlorovinyl)-2,2-dimethyl cyclopropane carboxylate], for which the “Relative Toxicity, Houseflies” value in test [1] was 100. The “Relative Toxicity, Mustard Beetles” value in test [2] amounted to 2000.

Regarding `CC1(C)C(C=C(Cl)Cl)C1C(=O)OC(C#N)c1cccc(Oc2ccccc2)c1` (racemic) [Compound P29F, (αRS)-cyano-3-phenoxybenzyl(1RS)-cis-trans-2,2-dimethyl-3-(2,2-dichlorovinyl)-cyclopropane carboxylate], in test [1], the “Relative Toxicity, Houseflies” value is 1700. In the case of `CC1(C)[C@H](C=C(Cl)Cl)[C@H]1C(=O)OCc1cccc(C(=O)c2ccccc2)c1` (racemic) [Compound P39B, 3-benzoylbenzyl(1RS)-trans-2,2-dimethyl-3-(2,2-dichlorovinyl)-cyclopropane carboxylate], the “Relative Toxicity, Houseflies” value in test [1] is 10. Besides, the “Relative Toxicity, Mustard Beetles” value in test [2] came out at 590. `CC1(C)C(C=C(Cl)Cl)C1C(=O)OC1C=C(Cc2ccccc2)C(=O)C1` (racemic) [ME8, (±)-2-benzylcyclopentenon-4-yl(1RS)-cis,trans-3,(2,2-dichlorovinyl)-2,2-dimethylcyclopropane carboxylate]: the “Relative Toxicity, Houseflies” value in test [1] is listed as 50. Moreover, in test [2], the “Relative Toxicity, Mustard Beetles” value turned out to be 265. On to `CC1(C)[C@H](C=C(Cl)Cl)[C@H]1C(=O)OCc1cccc(Cc2ccccc2)c1` (relative stereo) [Compound P21I], for which, in test [1], the “Relative Toxicity, Houseflies” value turned out to be 170. The “Relative Toxicity, Mustard Beetles” value in test [2] was 420.

For the compound `CC1(C)[C@H](C(=O)OCc2cccc(Cc3ccccc3)c2)[C@@H]1C=C(Cl)Cl` (relative stereo) [Compound P21J], the “Relative Toxicity, Houseflies” value in test [1] stood at 360. In addition, the “Relative Toxicity, Mustard Beetles” value in test [2] stood at 350. In the case of `CC1(C)[C@H](C(=O)OC(C#N)c2cccc(Oc3ccccc3)c2)[C@@H]1C=C(Cl)Cl` (relative stereo) [Compound P29G, (αRS)-cyano-3-phenoxybenzyl(1RS)-cis-2,2-dimethyl-3-(2,2-dichlorovinyl)-cyclopropane carboxylate], the “Relative Toxicity, Houseflies” value in test [1] is 3800. Besides, the “Relative Toxicity, Mustard Beetles” value in test [2] came to 2400. Take `CC1(C)[C@H](C=C(Cl)Cl)[C@H]1C(=O)OC(C#N)c1cccc(Oc2ccccc2)c1` (relative stereo) [Compound P29H, (αRS)-cyano-3-phenoxybenzyl(1RS)-trans-2,2-dimethyl-3-(2,2-dichlorovinyl)-cyclopropane carboxylate]: the “Relative Toxicity, Houseflies” value in test [1] was 1800. For the same compound, in test [2], the “Relative Toxicity, Mustard Beetles” value turned out to be 750. Consider `CC1(C)[C@H](C=C(Cl)Cl)[C@H]1C(=O)OC(C#N)c1cccc(C(=O)c2ccccc2)c1` (relative stereo) [Compound P39F, (αRS)-cyano-3-benzoylbenzyl(1RS)-trans-2,2-dimethyl-3-(2,2-dichlorovinyl)-cyclopropane carboxylate], for which, in test [1], the “Relative Toxicity, Houseflies” value stood at 80. Besides, in test [2], the “Relative Toxicity, Mustard Beetles” value amounted to 600.

As for `C=CC=CCC1=C(C)C(OC(=O)C2C(C=C(Cl)Cl)C2(C)C)CC1=O` (single isomer, unassigned) [Compound P21M], the “Relative Toxicity, Houseflies” value in test [1] was 19. For the same compound, the “Relative Toxicity, Mustard Beetles” value in test [2] was 370. For `C=C/C=C\CC1=C(C)C(OC(=O)[C@@H]2[C@@H](/C=C\CC)C2(C)C)CC1=O` (single isomer, unassigned) [Compound R] the same measures were 30 and 300. Regarding `CCCC=C[C@@H]1[C@@H](C(=O)OCc2coc(Cc3ccccc3)c2)C1(C)C` [B], in test [1], the “Relative Toxicity, Houseflies” value worked out at 630. Further, in test [2], the “Relative Toxicity, Mustard Beetles” value was found to be 890. `C=CCC1=C(C)C(OC(=O)[C@@H]2[C@@H](C=C(C)C)C2(C)C)CC1=O` (stereo partly shown) [Bioallethrin, reference compound]: the “Relative Toxicity, Houseflies” value in test [1] was determined as 60. Besides, the “Relative Toxicity, Mustard Beetles” value in test [2] is reported as 20. The corresponding values for `CCCCC=C[C@@H]1[C@@H](C(=O)OCc2coc(Cc3ccccc3)c2)C1(C)C` [Compound C] are 270 and 420.

For `CCC=C(C)C1C(C(=O)OCc2coc(Cc3ccccc3)c2)C1(C)C` (stereo not shown) [Compound H], in test [1], the “Relative Toxicity, Houseflies” value is below 7. In test [2], the “Relative Toxicity, Mustard Beetles” value is reported as 10. On to `CCCC=C(C)C1C(C(=O)OCc2coc(Cc3ccccc3)c2)C1(C)C` (stereo not shown) [Compound I], for which the “Relative Toxicity, Houseflies” value in test [1] is on record as below 7. Besides, the “Relative Toxicity, Mustard Beetles” value in test [2] is reported as below 10. For `CC1(C)[C@H](C(=O)OCC#CCOc2ccccc2)[C@@H]1C=C(F)F` [Compound ME3, 4-Phenoxybut-2-ynyl(1R)cis-3-(2,2-difluorovinyl)-2,2-dimethylcyclopropane carboxylate] the same measures were 150 and 30. For `CC1(C)[C@H](C=C(F)F)[C@H]1C(=O)OCC#CCOc1ccccc1` [Compound ME4, 4-Phenoxybut-2-ynyl(1R)-trans-3-(2,2-difluorovinyl)-2,2-dimethylcyclopropane carboxylate] the same measures were 60 and 70. Take `CC1(C)[C@H](C(=O)OCC#CCOc2ccccc2)[C@@H]1C=C(Br)Br` [Compound ME6, 4-Phenoxybut-2-ynyl(1R)cis-3-(2,2-dibromovinyl)-2,2-dimethylcyclopropane carboxylate]: the “Relative Toxicity, Houseflies” value in test [1] is given as 390. In test [2], the “Relative Toxicity, Mustard Beetles” value is 50. As to `COC(=O)C=C[C@@H]1[C@@H](C(=O)OCc2coc(Cc3ccccc3)c2)C1(C)C` [Compound P19A], in test [1], the “Relative Toxicity, Houseflies” value was 91. In test [2], the “Relative Toxicity, Mustard Beetles” value is recorded as 100. For the compound `CCOC(=O)C=C[C@@H]1[C@@H](C(=O)OCc2coc(Cc3ccccc3)c2)C1(C)C` [Compound P19B], in test [1], the “Relative Toxicity, Houseflies” value is listed as 67. In addition, the “Relative Toxicity, Mustard Beetles” value in test [2] is 320. In the case of `CCCOC(=O)C=C[C@@H]1[C@@H](C(=O)OCc2coc(Cc3ccccc3)c2)C1(C)C` [Compound P19C], the “Relative Toxicity, Houseflies” value in test [1] worked out at 24. Further, in test [2], the “Relative Toxicity, Mustard Beetles” value was 40. On to `CCOC(=O)C(C)=C[C@@H]1[C@@H](C(=O)OCc2coc(Cc3ccccc3)c2)C1(C)C` [Compound P19D], for which the “Relative Toxicity, Houseflies” value in test [1] was 290. For the same compound, in test [2], the “Relative Toxicity, Mustard Beetles” value was 440.

For the compound `CCCOC(=O)C(C)=C[C@@H]1[C@@H](C(=O)OCc2coc(Cc3ccccc3)c2)C1(C)C` [Compound P19E], the “Relative Toxicity, Houseflies” value in test [1] was 290. In addition, the “Relative Toxicity, Mustard Beetles” value in test [2] came to 500.

Consider `CCC(=C[C@@H]1[C@@H](C(=O)OCc2coc(Cc3ccccc3)c2)C1(C)C)C(=O)OC` [Compound P19F], for which, in test [1], the “Relative Toxicity, Houseflies” value worked out at 130. In test [2], the “Relative Toxicity, Mustard Beetles” value worked out at 360. Turning to `CCOC(=O)C(=C[C@@H]1[C@@H](C(=O)OCc2coc(Cc3ccccc3)c2)C1(C)C)CC` [Compound P19G], the “Relative Toxicity, Houseflies” value in test [1] is recorded as 300. In addition, the “Relative Toxicity, Mustard Beetles” value in test [2] was determined as 500. With `CCCOC(=O)C(=C[C@@H]1[C@@H](C(=O)OCc2coc(Cc3ccccc3)c2)C1(C)C)CC` [Compound P19H], in test [1], the “Relative Toxicity, Houseflies” value was determined as 20. The “Relative Toxicity, Mustard Beetles” value in test [2] came to 50. `CC1(C)[C@H](C=C(Cl)Cl)[C@H]1C(=O)OCc1coc(Cc2ccccc2)c1` [Compound P21A]: the “Relative Toxicity, Houseflies” value in test [1] was found to be 2500. In addition, in test [2], the “Relative Toxicity, Mustard Beetles” value came out at 2700. Turning to `CC1(C)[C@H](C=C(Br)Br)[C@H]1C(=O)OCc1coc(Cc2ccccc2)c1` [Compound P21B], in test [1], the “Relative Toxicity, Houseflies” value is recorded as 1100. The “Relative Toxicity, Mustard Beetles” value in test [2] is reported as 1900.

On to `CC1(C)C(C=C(Cl)Cl)C1C(=O)OCc1cccc(Cc2ccccc2)c1` (stereo not shown) [Compound P21K], for which, in test [1], the “Relative Toxicity, Houseflies” value is recorded as 340. Further, the “Relative Toxicity, Mustard Beetles” value in test [2] was 350. In the case of `COC(=O)C(Cl)=C[C@@H]1[C@@H](C(=O)OCc2coc(Cc3ccccc3)c2)C1(C)C` [Compound P24A, 5-benzyl-3-furylmethyl ester of 2,2-dimethyl-3-(2-chloro-2-carbomethoxyvinyl)cyclopropane carboxylic acid], the “Relative Toxicity, Houseflies” value in test [1] amounted to 82. Moreover, the “Relative Toxicity, Mustard Beetles” value in test [2] is reported as 310. Regarding `CCOC(=O)C(Cl)=C[C@@H]1[C@@H](C(=O)OCc2coc(Cc3ccccc3)c2)C1(C)C` [Compound P24B], the “Relative Toxicity, Houseflies” value in test [1] stood at 150. Besides, the “Relative Toxicity, Mustard Beetles” value in test [2] amounted to 310. For `C=C(C)C1C(C(=O)OCc2coc(Cc3ccccc3)c2)C1(C)C` (stereo not shown) [F], in test [1], the “Relative Toxicity, Houseflies” value amounted to 21. Take `CC=C(C)C1C(C(=O)OCc2coc(Cc3ccccc3)c2)C1(C)C` (stereo not shown) [G]: the “Relative Toxicity, Houseflies” value in test [1] was found to be 18.
